Experimental data: patent US11976083B2, “Inhibitors of peptidylarginine deiminases” (Gilead Sciences, Inc., priority 2020, dated 2024)

biological target: T1, human PAD4 (Homo sapiens, UniProt Q9UM07); experiment: In vitro PAD4 BAEE biochemical assay; settings: BAEE substrate 3 mM, 5 nM PAD4, 2 mM calcium chloride; geometric mean of multiple experiments
T1 construct: human PAD4 (NM_012387), A2-P663, was PCR amplified; His-SUMO (N, cleaved yes); made in house; host or cells: E. coli BL21(DE3)
Outline: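 Recombinant PAD4 (5 nM final) with 2 mM CaCl2 was preincubated with compound for 30 min at 25 °C in MOPS pH 7.6 buffer with DTT, then reacted with 3 mM BAEE for 2 h at 25 °C. Released ammonia was detected fluorimetrically with o-phthalaldehyde/DTT; IC50 from four-parameter fit, geometric mean of experiments.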

T1 sequence (Q9UM07 2-663): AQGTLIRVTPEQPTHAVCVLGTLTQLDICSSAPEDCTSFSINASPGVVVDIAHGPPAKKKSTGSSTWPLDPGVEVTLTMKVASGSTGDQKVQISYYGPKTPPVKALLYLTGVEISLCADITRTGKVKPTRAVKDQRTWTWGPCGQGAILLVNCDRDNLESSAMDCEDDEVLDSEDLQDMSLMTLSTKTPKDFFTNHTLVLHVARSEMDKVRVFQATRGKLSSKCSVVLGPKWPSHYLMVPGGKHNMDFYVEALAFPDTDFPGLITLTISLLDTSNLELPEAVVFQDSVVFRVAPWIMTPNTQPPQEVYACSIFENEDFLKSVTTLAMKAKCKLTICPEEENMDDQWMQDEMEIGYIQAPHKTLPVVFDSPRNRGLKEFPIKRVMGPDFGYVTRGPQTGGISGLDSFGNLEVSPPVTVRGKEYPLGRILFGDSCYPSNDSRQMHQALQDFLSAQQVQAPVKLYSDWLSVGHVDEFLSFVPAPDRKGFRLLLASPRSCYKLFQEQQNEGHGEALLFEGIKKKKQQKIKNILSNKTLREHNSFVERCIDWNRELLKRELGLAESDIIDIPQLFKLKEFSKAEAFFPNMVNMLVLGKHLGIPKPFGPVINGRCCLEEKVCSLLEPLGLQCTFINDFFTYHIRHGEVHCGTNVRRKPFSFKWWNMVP

Row | IC50 | Compound
1 | 55 nM | COc1cc(C(=O)N2C[C@H](N)[C@@H]3CC[C@H]2C3)cc2nc(-c3cc4ccc5nc4n3CCCCCc3c(ccc(F)c3F)C(=O)N[C@@H]5C)n(C)c12 [Example 906, (2~{R})-17-[5-[(1~{S},4~{R}, 5~{R})-4-amino-2-azabicyclo [3.2.1]octane-2-carbonyl]-7-methoxy-1-methyl-benzimidazol-2-yl]-8,9-difluoro-2-methyl-3,16,22-triazatetracyclo [14.5.2.0^{5,10).0^{19,23}] tricosa-1(22),5(10),6,8,17, 19(23),20-heptaen-4-one]
2 | 91 nM | COc1cc(C(=O)N2CC[C@@H](OC)[C@@H](N)C2)cc2nc(-c3cc4ccc5nc4n3CCCCCc3cccc(C(F)F)c3C(=O)N[C@@H]5C)n(C)c12 [Example 397, (2~{R})-17-[5-[(3~{S},4~{R})-3-amino-4-methoxy-piperidine-1-carbonyl]-7-methoxy-1-methyl-benzimidazol-2-yl]-6-(difluoromethyl)-2-methyl-3,16,22-triazatetracyclo[14.5.2.0^{5,10}.0^{19,23}] tricosa-1(22),5(10),6,8,17,19(23),20-heptaen-4-one]
3 | 121 nM | COc1cc(C(=O)N2CC[C@@H](OCC(F)F)[C@@H](N)C2)cc2nc(-c3cc4ccc5nc4n3CCCCCCC(C)(C)C(=O)N[C@@H]5C)n(C)c12 [Example 14, (11~{R})-17-[5-[(3~{S),4~{R})-3-amino-4-(2,2-difluoroethoxy)piperidine-1-carbonyl]-7-methoxy-1-methyl-benzimidazol-2-yl]-8,8,11-trimethyl-1,10,19-triazatricyclo[10.5.2.0^{15,18}]nonadeca-12(19),13,15(18),16-tetraen-9-one]
4 | 43 nM | Cc1cc2c(cc1C(=O)N[C@H]1CNCC[C@@H]1F)nc(-c1cc3ccc4nc3n1CC(F)(F)CCC[C@@H]1C[C@H]1C(=O)N[C@@H]4C)n2C [Example 551, 2-[(2~{R},5~{R},7~ {R})-11,11-difluoro-2-methyl-4-oxo-3,13,19-triazatetracyclo[11.5.2.0^ {5,7).0^{16,20}]icosa-1(19),14,16(20),17-tetraen-14-yl]-~{N}-[(3~ {S},4~{S})-4-fluoro-3-piperidyl]-1,6-dimethyl-benzimidazole-5-carboxamide]
5 | 104 nM | COc1cc(C(=O)N2CC[C@@H](OC)[C@@H](N)C2)cc2nc(-c3cc4ccc5nc4n3CCCCCc3cnc(Cl)cc3C(=O)N[C@@H]5C)n(C)c12 [Example 359, (2~{R})-17-[5-[(3~{S},4~{R})-3-amino-4-methoxy-piperidine-1-carbonyl]-7-methoxy-1-methyl-benzimidazol-2-yl]-7-chloro-2-methyl-3,8,16,22-tetrazatetracyclo[14.5.2.0^{5,10}.0^{19,23}] tricosa-1(22),5,7,9,17,19(23),20-heptaen-4-one]
6 | 3580 nM | C[C@H]1NC(=O)C(C)(C)CCCCCCn2c(-c3nc4cc(C(=O)N[C@H]5CNCC[C@@H]5F)c(C#N)cc4n3C)cc3ccc1nc32 [Example 596, 6-cyano-~{N}-[(3~{S},4~ {S})-4-fluoro-3-piperidyl]-1-methyl-2-[(11~{R})-8,8,11-trimethyl-9-oxo-1,10,19-triazatricyclo[10.5.2.0^ {15,18}]nonadeca-12,14,16,18-tetraen-17-yl] benzimidazole-5-carboxamide]
7 | 43 nM | CO[C@H]1C[C@@H]1n1c(-c2cc3ccc4nc3n2CC(F)(F)CCC[C@@H]2C[C@H]2C(=O)N[C@@H]4C)nc2cc(C(=O)N3C[C@H](N)[C@@H]4CC[C@H]3C4)cc(F)c21 [Example 470, (2~{R},5~{R},7~{R})-14-[5-[(1~{S},4~{R},5~{R})-4-amino-2-azabicyclo[3.2.1]octane-2-carbonyl]-7-fluoro-1-[(1~{S},2~{S})-2-methoxycyclopropyl]benzimidazol-2-yl]-11,11-difluoro-2-methyl-3,13,19-triazatetracyclo[11.5.2.0^{5,7}.0^{16,20}] icosa-1(18),14,16,19-tetraen-4-one]
8 | 26 nM | C[C@H]1NC(=O)[C@@H]2C[C@H]2CCCCCn2c(-c3nc4cc(C(=O)N5[C@H]6CC[C@@H]5[C@H](N)C6)cnc4n3C)cc3ccc1nc32 [Example 563, (2~{R},5~{R},7~{R})-14-[6-[(1~{R},2~{R},4~ {S})-2-amino-7-azabicyclo [2.2.1]heptane-7-carbonyl]-3-methyl-imidazo[4,5-b]pyridin-2-yl]-2-methyl-3,13,19-triazatetracyclo [11.5.2.0^{5,7}.0^{16,20}] icosa-1(19),14,16(20), 17-tetraen-4-one]
9 | 682 nM | COc1cc(C(=O)N2CC[C@@H](OC)[C@@H](N)C2)cc2nc(-c3cc4ccc5nc4n3CCC/C=C/[C@@H]3C[C@@]3(C(F)(F)F)C(=O)N[C@@H]5C)n(C)c12 [Example 635, (2~{R},5~{S},7~{S},8~{E})-14-[5-[(3~{S},4~{R})-3-amino-4-methoxy-piperidine-1-carbonyl]-7-methoxy-1-methyl-benzimidazol-2-yl]-2-methyl-5-(trifluoromethyl)-3,13,19-triazatetracyclo[11.5.2.0^ {5,7}.0^{16,20}] icosa-1(19),8,14,16(20), 17-pentaen-4-one]
10 | 13 nM | COc1cc(C(=O)N2C[C@H](N)[C@@H]3CC[C@H]2C3)cc2nc(-c3cc4ccc5nc4n3CC(F)(F)CCCc3ccccc3C(=O)N[C@@H]5C)n(C)c12 [Example 716, (2~{R})-17-[5-[(1~{S},4~ {R},5~{R})-4-amino-2-azabicyclo[3.2.1]octane-2-carbonyl]-7-methoxy-1-methyl-benzimidazol-2-yl]-14,14-difluoro-2-methyl-3,16,22-triazatetracyclo [14.5.2.0^{5,10}.0^{19,23}] tricosa-1(22),5(10),6,8,17, 19(23),20-heptaen-4-one]
11 | 75 nM | COc1cc(C(=O)N2[C@H]3CC[C@@H]2[C@H](N)C3)cc2nc(-c3cc4ccc5nc4n3CCCCCCNC(=O)c3ccccc3-5)n(C)c12 [Example 48, 17-[5-[(1~{R),2~{R},4~{S})-2-amino-7-azabicyclo[2.2.1]heptane-7-carbonyl]-7-methoxy-1-methyl-benzimidazol-2-yl]-9,16,22-triazatetracyclo[14.5.2.0^{2,7}.0^{19,23}] tricosa-1(22),2,4,6,17,19(23),20-heptaen-8-one]
12 | 118 nM | COc1cc(C(=O)N2CC[C@@H](OC)[C@@H](N)C2)cc2nc(-c3cc4ccc5nc4n3CCCCCc3ccccc3C(=O)N[C@@H]5C)n(C)c12 [Example 43, (2~{R})-17-[5-[(3~{S},4~{R})-3-amino-4-methoxy-piperidine-1-carbonyl]-7-methoxy-1-methyl-benzimidazol-2-yl]-2-methyl-3,16,22-triazatetracyclo[14.5.2.0^{5,10}.0^{19,23}] tricosa-1(22),5,7,9,17,19(23),20-heptaen-4-one]
13 | 31 nM | C[C@H]1NC(=O)[C@@H]2C[C@H]2CCCCCn2c(-c3nc4cc(C(=O)N[C@H]5CNCC[C@@H]5F)c(F)cc4n3C3CC34CC4)cc3ccc1nc32 (stereo partly drawn) [Example 571, 6-fluoro-~{N}-[(3~ {S},4~{S})-4-fluoro-3-piperidyl]-2-[(2~{R}, 5~{R},7~{R})-2-methyl-4-oxo-3,13,19-triazatetracyclo[11.5.2.0^ {5,7}.0^{16,20}]icosa-1(19),14,16(20),17-tetraen-14-yl]-1-spiro [2.2]pentan-2-yl-benzimidazole-5-carboxamide]
14 | 113 nM | C[C@@H]1[C@H](N)CCCN1C(=O)c1ccc2c(nc(-c3cc4ccc5nc4n3CC/C=C/C[C@@H]3C[C@H]3C(=O)N[C@@H]5C)n2C2CC2)c1F [Example 753, (2~{R},5~{R},7~{R},9~{E})-14-[5-[(2~{R},3~{R})-3-amino-2-methyl-piperidine-1-carbonyl]-1-cyclopropyl-4-fluoro-benzimidazol-2-yl]-2-methyl-3,13,19-triazatetracyclo [11.5.2.0^{5,7}.0^{16,20}] icosa-1(19),9,14,16(20), 17-pentaen-4-one]
15 | 62 nM | COCCn1c(-c2cc3ccc4nc3n2CCCCCCC(C)(C)C(=O)N[C@@H]4C)nc2cc(C(=O)N[C@H]3CNCC[C@@H]3F)c(F)cc21 [Example 417, 6-fluoro-~{N}-[(3~{S},4~{S})-4-fluoro-3-piperidyl]-1-(2-methoxyethyl)-2-[(11~{R})-8,8,11-trimethyl-9-oxo-1,10,19-triazatricyclo[10.5.2.0^{15,18}]nonadeca-12(19),13,15(18),16-tetraen-17-yl]benzimidazole-5-carboxamide]
16 | 61 nM | COc1cc(C(=O)N2CCC[C@@H](N)C2)cc2nc(-c3cc4ccc5nc4n3CC3(CCCCCC(=O)N[C@@H]5C)CC3)n(C)c12 [Example 114, (11~{R})-17-[5-[(3~{R})-3-aminopiperidine-1-carbonyl]-7-methoxy-1-methyl-benzimidazol-2-yl]-11-methyl-spiro[1,10,19-triazatricyclo[10.5.2.0^{15,18}]nonadeca-12(19),13,15(18),16-tetraene-3,1′-cyclopropane]-9-one]
17 | 33 nM | C[C@H]1NC(=O)[C@@H]2C[C@H]2CCCCCn2c(-c3nc4cc(C(=O)N[C@@H]5CCCNC5)c(F)cc4n3C3CC3)cc3ccc1nc32 [Example 568, 1-cyclopropyl-6-fluoro-2-[(2~{R},5~{R},7~{R})-2-methyl-4-oxo-3,13,19-triazatetracyclo[11.5.2.0^ {5,7}.0^{16,20}]icosa-1(19), 14,16(20),17-tetraen-14-yl]- ~{N}-[(3~{R})-3-piperidyl]benzimidazole-5-carboxamide11,11-difluoro-2-methyl-4-oxo-3,13,19-]
18 | 17 nM | COc1cc(C(=O)N2C[C@H](N)[C@@H]3CC[C@H]2C3)cc2nc(-c3cc4ccc5nc4n3CCCCC[C@]3(F)C[C@H]3C(=O)N[C@@H]5C)c(C3CC3)n12 [Example 758, (2~{R},5~{S},7~{S})-14-[7-[(1~{S},4~{R},5~{R})-4-amino-2-azabicyclo[3.2.1]octane-2-carbonyl]-3-cyclopropyl-5-methoxy-imidazo[1,2-a]pyridin-2-yl]-7-fluoro-2-methyl-3,13,19-triazatetracyclo [11.5.2.0^{5,7}.0^{16,20}] icosa-1(19),14,16(20),17-tetraen-4-one]
